assay: Fluorescence Based Assay: The details of the KEAP1 KELCH ThermoFluor® Assay Construct are as follows: Kelch domain of human KEAP 1 (321-624 aa) was used in the assay. The protein was expressed in E. coli with 6His tag that was cleaved prior to receipt for use.ThermoFluor® experiments were carried out using instruments owned by Janssen Research and Discovery, L.L.C. through its acquisition of 3-Dimensional Pharmaceuticals, Inc. 1,8-ANS (Invitrogen) was used as a fluorescent dye. Protein (KEAP Kelch) and compound solutions were dispensed into black 384-well polypropylene PCR microplates (Abgene) and overlayed with silicone oil (1 μL, Fluka, type DC 200) to prevent evaporation.Reference wells contained KEAP Kelch without compounds, and the assay conditions were as follows: 1.1 μM (0.037mg/mL) KEAP Kelch, 80 μM 1,8-ANS, 25 mM PIPES, pH 7.0, 100 mM NaCl, 0.002% Tween-20.

Structure (SMILES)	Kd [nM]
Cc1ccc([C@@H](c2ccn3c(C(F)(F)F)nnc3c2C)C(C)(C)C(=O)O)cc1CN1CC2(CCOCC2)Oc2nc(OCCN3CCOCC3)ccc2S1(=O)=O	< 1
Cc1ccc(C(c2ccn3c(C(F)(F)F)nnc3c2C)C(C)(C)C(=O)O)cc1CN1CC2(CCOCC2)Oc2nc(OCCCO)ccc2S1(=O)=O (stereo unspecified)	< 1
Cc1ccc([C@@H](c2cc(C)n3c(C(F)(F)F)nnc3c2C)C(C)C(=O)O)cc1CN1C[C@@H]2CCCCN2c2ncccc2S1(=O)=O (stereo partly specified)	< 1
Cc1ccc([C@H](CC(=O)O)c2ccn3c(C(F)(F)F)nnc3c2C)cc1CN1CC2(CC2)Oc2nc(NCCN3CCOCC3)ccc2S1(=O)=O	< 1
Cc1ccc([C@H](CC(=O)O)c2ccn3c(C(F)(F)F)nnc3c2C)nc1CN1C[C@@H]2CCCCN2c2ncc(C#N)cc2S1(=O)=O	< 1
Cc1ccc(C(CC(=O)O)c2ccn3c(C4CC4)nnc3c2C)cc1CN1C[C@H]2CCCN2c2ncccc2S1(=O)=O (stereo partly specified)	< 1
Cc1ccc([C@@H](CC(=O)O)c2ccn3c(C(F)F)nnc3c2C)cc1CN1C[C@H]2CCCCN2c2ncc(C#N)cc2S1(=O)=O	< 1
CCn1nnc2c(C)c(C(CC(=O)O)c3ccc(C)c(CN4C[C@@H]5CCCN5c5ncccc5S4(=O)=O)c3)ccc21 (stereo partly specified)	< 1
CCn1nnc2c(C)c([C@@H](CC(=O)O)c3ccc(C)c(CN4C[C@H]5CCCN5c5ccccc5S4(=O)=O)c3)ccc21	< 1
Cc1ccc([C@H](c2ccn3c(C(F)(F)F)nnc3c2C)C(C)(C)C(=O)O)cc1CN1CC2(CCOCC2)Oc2nc(NC3CC(O)C3)c(C)cc2S1(=O)=O (stereo partly specified)	< 1
Cc1ccc([C@@H](c2ccn3c(C(F)(F)F)nnc3c2C)C(C)(C)C(=O)O)cc1CN1CC2(CCOCC2)Oc2nc(N[C@@H](C)CCO)ccc2S1(=O)=O	< 1
Cc1ccc([C@@H](c2ccn3c(C(F)(F)F)nnc3c2C)C(C)(C)C(=O)O)cc1CN1CC2(CCOCC2)Oc2nc(N[C@H](C)CCO)ccc2S1(=O)=O	< 1
Cc1cnc([C@@H](c2ccn3c(C(F)(F)F)nnc3c2C)C(C)(C)C(=O)O)cc1CN1CC2(CCOCC2)Oc2ncccc2S1(=O)=O	< 1
Cc1ccc(C(CC(=O)O)c2ccc3c(nnn3CC3CC3)c2C)cc1CN1CC2(COC2)Oc2ccccc2S1(=O)=O (stereo unspecified)	< 1
Cc1ccc([C@@H](CC(=O)O)c2ccn3c(C(F)F)nnc3c2C)cc1CN1C[C@@H]2CCCCN2c2ncc(C#N)cc2S1(=O)=O	< 1
CC[C@@H]1CN(Cc2nc([C@@H](CC(=O)O)c3ccc4c(nnn4C4CC4)c3C)ccc2C)S(=O)(=O)c2cccnc2O1	< 1
Cc1ccc([C@@H](c2ccn3c(C4CC4)nnc3c2C)C(C)(C)C(=O)O)cc1CN1CC2(CCOCC2)Oc2ncccc2S1(=O)=O	< 1
Cc1c([C@@H](CC(=O)O)c2ccc(Cl)c(CN3CC4CCCCN4c4ncccc4S3(=O)=O)c2)ccn2c(C(F)(F)F)nnc12 (stereo partly specified)	< 1
Cc1ccc(C(CC(=O)O)c2ccn3c(C(F)F)nnc3c2C)cc1CN1CC2CCCCN2c2ncc(C#N)cc2S1(=O)=O (stereo unspecified)	< 1
CC[C@@H]1CN(Cc2nc([C@H](CC(=O)O)c3ccc4c(nnn4C4CC4)c3C)ccc2C)S(=O)(=O)c2cccnc2O1	< 1
Cc1ccc(C(CC(=O)O)c2ccc3c(nnn3CC3CC3)c2C)cc1CN1CC2(CC2)N(C)c2ncccc2S1(=O)=O (stereo unspecified)	< 1
Cc1ccc([C@@H](c2ccn3c(C(F)(F)F)nnc3c2C)C(C)(C)C(=O)O)cc1CN1CC2(CCOCC2)Oc2nc(OCCCO)ccc2S1(=O)=O	< 1

Structure (SMILES)	Kd [nM]
Cc1cnc(C(c2ccn3c(C(F)(F)F)nnc3c2C)C(C)(C)C(=O)O)cc1CN1CC2(CCOCC2)Oc2ncccc2S1(=O)=O (stereo unspecified)	< 1
Cc1ccc(C(c2ccn3c(C(F)(F)F)nnc3c2C)C(C)(C)C(=O)O)cc1CN1CC2(CCOCC2)Oc2nc(OCCN3CCOCC3)ccc2S1(=O)=O (stereo unspecified)	< 1
Cc1ccc([C@H](CC(=O)O)c2ccn3c(C(F)(F)F)nnc3c2C)cc1CN1C[C@H]2CCCCN2c2ncc(C#N)cc2S1(=O)=O	< 1
Cc1ccc([C@H](CC(=O)O)c2ccn3c(C)nnc3c2)cc1CN1C[C@H]2CCCN2c2ncccc2S1(=O)=O	< 1
Cc1ccc([C@H](CC(=O)O)c2ccn3c(C(F)(F)F)nnc3c2C)cc1CN1CC2(CC2)Oc2nc(N(C)CCCO)ccc2S1(=O)=O	< 1
Cc1ccc([C@@H](c2ccn3c(C(F)(F)F)nnc3c2C)C(C)(C)C(=O)O)cc1CN1CC2(CCOCC2)Oc2nc(OCCN3CCCCC3)c(C)cc2S1(=O)=O	< 1
Cc1ccc([C@@H](CC(=O)O)c2ccn3c(C(F)(F)F)nnc3c2C)nc1CN1C[C@H]2CCCCN2c2ncc(C#N)cc2S1(=O)=O	< 1
Cc1cnc2c(c1)S(=O)(=O)N(Cc1cc([C@@H](CC(=O)O)c3ccn4c(C(F)(F)F)nnc4c3C)ccc1C)CC1(CC1)O2	< 1
Cc1ccc(C(c2ccn3c(C(F)(F)F)nnc3c2C)C(C)C(=O)O)cc1CN1C[C@@H]2CCCCN2c2ncccc2S1(=O)=O (stereo partly specified)	< 1
Cc1ccc(C(c2ccn3c(C(F)(F)F)nnc3c2C)C(C)(C)C(=O)O)cc1CN1CC2(CCOCC2)Oc2nc(N[C@H](C)CCO)ccc2S1(=O)=O (stereo partly specified)	< 1
Cc1cnc2c(c1)S(=O)(=O)N(Cc1cc([C@H](CC(=O)O)c3ccn4c(C(F)(F)F)nnc4c3C)ccc1Cl)CC1CCCCN21 (stereo partly specified)	< 1
Cc1ccc([C@H](c2ccn3c(C(F)(F)F)nnc3c2C)C(C)(C)C(=O)O)cc1CN1CC2(CCOCC2)Oc2nc(OCC(=O)NCCO)ccc2S1(=O)=O	< 1
Cc1ccc([C@H](c2ccn3c(C(F)(F)F)nnc3c2C)C(C)(C)C(=O)O)cc1CN1CC2(CCOCC2)Oc2nc(N[C@@H](C)CCO)c(C)cc2S1(=O)=O	< 1
CCn1nnc2c(C)c([C@@H](CC(=O)O)c3ccc(C)c(CN4C[C@@H]5CCCN5c5ccccc5S4(=O)=O)c3)ccc21	< 1
CC[C@@H]1CN(Cc2nc(C(CC(=O)O)c3ccc4c(nnn4C4CC4)c3C)ccc2C)S(=O)(=O)c2cccnc2O1 (stereo partly specified)	< 1
Cc1ccc([C@H](CC(=O)O)c2ccn3c(C(F)(F)F)nnc3c2C)nc1CN1C[C@H]2CCCCN2c2ncc(C#N)cc2S1(=O)=O	< 1
CC[C@@H]1CN(Cc2cc(C(CC(=O)O)c3ccn4c(C)nnc4c3)ccc2C)S(=O)(=O)c2cccnc2O1 (stereo partly specified)	< 1
Cc1ccc([C@@H](c2ccn3c(C(F)(F)F)nnc3c2C)C(C)(C)C(=O)O)nc1CN1CC2(CCOCC2)Oc2ncccc2S1(=O)=O	< 1
Cc1ccc([C@@H](c2ccn3c(C(F)(F)F)nnc3c2C)C(C)(C)C(=O)O)cc1CN1CC2(CCOCC2)Oc2nc(NCCCO)ccc2S1(=O)=O	< 1
Cc1ncc([C@H](c2ccc3c(nnn3C3CC3)c2C)C(C)(C)C(=O)O)cc1CN1CC2(CCOCC2)Oc2ncccc2S1(=O)=O	< 1
Cc1ccc([C@H](CC(=O)O)c2ccn3c(C(F)(F)F)nnc3c2C)cc1CN1CC2(CC2)Oc2nc(NCCO)ccc2S1(=O)=O	< 1
Cc1ccc(C(CC(=O)O)c2ccn3c(C(F)(F)F)nnc3c2C)nc1CN1CC2CCCCN2c2ncc(C#N)cc2S1(=O)=O (stereo unspecified)	< 1

Structure (SMILES)	Kd [nM]
COCCCNc1ccc2c(n1)OC1(CC1)CN(Cc1cc([C@H](CC(=O)O)c3ccn4c(C(F)(F)F)nnc4c3C)ccc1C)S2(=O)=O	< 1
CCn1nnc2c(C)c([C@H](CC(=O)O)c3ccc(C)c(CN4C[C@H]5CCCN5c5ccccc5S4(=O)=O)c3)ccc21	< 1
Cc1ccc(C(c2cc(C)n3c(C(F)(F)F)nnc3c2C)C(C)C(=O)O)cc1CN1C[C@@H]2CCCCN2c2ncccc2S1(=O)=O (stereo partly specified)	< 1
Cc1ccc([C@@H](CC(=O)O)c2ccn3c(C)nnc3c2)cc1CN1C[C@H]2CCCN2c2ccccc2S1(=O)=O	< 1
CCn1nnc2c(C)c([C@@H](c3cnc(C)c(CN4CC5(CCOCC5)Oc5ncc(C)cc5S4(=O)=O)c3)C(C)(C)C(=O)O)ccc21	< 1
Cc1ccc([C@H](c2ccn3c(C(F)(F)F)nnc3c2C)C(C)(C)C(=O)O)cc1CN1CC2(CCOCC2)Oc2nc(N[C@H](C)C(C)(C)O)c(C)cc2S1(=O)=O	< 1
Cc1ccc([C@@H](CC(=O)O)c2ccn3c(C(F)(F)F)nnc3c2C)nc1CN1C[C@@H]2CCCCN2c2ncc(C#N)cc2S1(=O)=O	< 1
Cc1ccc(C(CC(=O)O)c2ccn3c(C)nnc3c2)cc1CN1CC(C)(C)Oc2ncccc2S1(=O)=O (stereo unspecified)	< 1
Cc1ccc([C@H](CC(=O)O)c2ccn3c(C)nnc3c2)cc1CN1C[C@H]2CCCN2c2ccccc2S1(=O)=O	< 1
Cc1ccc(C(c2ccn3c(C(F)F)nnc3c2C)C(C)(C)C(=O)O)cc1CN1CC2(CCOCC2)Oc2ncccc2S1(=O)=O (stereo unspecified)	< 1
Cc1c([C@@H](CC(=O)O)c2ccc(Cl)c(CN3CC4CCCCN4c4ncc(F)cc4S3(=O)=O)c2)ccn2c(C(F)(F)F)nnc12 (stereo partly specified)	< 1
Cc1ccc([C@@H](c2ccn3c(C(F)F)nnc3c2C)C(C)(C)C(=O)O)cc1CN1CC2(CCOCC2)Oc2ncccc2S1(=O)=O	< 1
Cc1c(C(CC(=O)O)c2ccc(Cl)c(CN3CC4CCCCN4c4ncc(F)cc4S3(=O)=O)c2)ccn2c(C(F)(F)F)nnc12 (stereo unspecified)	< 1
Cc1c([C@H](CC(=O)O)c2ccc(Cl)c(CN3CC4CCCCN4c4ncc(F)cc4S3(=O)=O)c2)ccn2c(C(F)(F)F)nnc12 (stereo partly specified)	< 1
CCn1nnc2c(C)c(C(c3cnc(C)c(CN4CC5(CCOCC5)Oc5ncc(C)cc5S4(=O)=O)c3)C(C)(C)C(=O)O)ccc21 (stereo unspecified)	< 1
Cc1ccc([C@H](CC(=O)O)c2ccn3c(C4CC4)nnc3c2C)cc1CN1C[C@H]2CCCN2c2ncccc2S1(=O)=O	< 1
Cc1ccc(C(c2ccn3c(C(F)(F)F)nnc3c2C)C(C)(C)C(=O)O)cc1CN1CC2(CCOCC2)Oc2nc(N[C@@H](C)CCO)ccc2S1(=O)=O (stereo partly specified)	< 1
Cc1ccc([C@H](CC(=O)O)c2ccc3c(nnn3CC3CC3)c2C(F)F)cc1CN1C[C@H]2CCCCN2c2ncccc2S1(=O)=O	< 1
Cc1ccc([C@H](CC(=O)O)c2ccn3c(C(F)(F)F)nnc3c2C)cc1CN1CC2(CC2)Oc2nc(NCCCO)ccc2S1(=O)=O	< 1
Cc1ccc([C@H](CC(=O)O)c2ccn3c(C(F)(F)F)nnc3c2C)cc1CN1CC2(CC2)Oc2nc(NCCN3CCCCC3)ccc2S1(=O)=O	< 1
Cc1c(C(CC(=O)O)c2ccc(Cl)c(CN3CC4CCCCN4c4ncccc4S3(=O)=O)c2)ccn2c(C(F)(F)F)nnc12 (stereo unspecified)	< 1
Cc1ccc([C@H](CC(=O)O)c2ccn3c(C(F)(F)F)nnc3c2C)cc1CN1C[C@@H]2CCCCN2c2ncc(C#N)cc2S1(=O)=O	< 1
